US5869515A, “1,3-dihydro-2H-imidazol-2-one compounds” (Janssen Pharmaceutica N.V., priority 1995, dated 1999)

Columns and labels:
[1] = test system: dextran-induced oedema formation in mouse ear; experiment: Dextran-Induced Oedema Formation in Mouse Ear; type: in vivo, male Swiss mice; conditions: oral, mice, 1 h before i.v. dextran T500 and pontamine sky-blue, compared with background extravasation, read-out: % inhibition of the extravasation of the dye
Experimental: Dextran-Induced Oedema Formation in Mouse Ear
Systemic injection of dextran T500 in normal, non-sensitized mice elicits increased vascular permeability, leading to extravasation and oedema of the extremities. When dextran is injected together with a blue dye, blueing of the ears is the most prominent feature of oedematous response.
Male Swiss mice weighing 24-26 g were orally pretreated with the test compound dissolved in PEG-200 at different concentrations or solvent. One hour later, the mice were given an intravenous injection with an isotonic saline solution containing 12 mg/ml dextran T500 and 2.6 mg/ml pontamine sky-blue dye, in a volume of 0.1 ml per 10 g body weight. One hour and forty-five minutes later, the animals are sacrificed by ether and their ears removed. Extraction and quantification of the extravasated dye is done as described by Van Wauwe and Goossens (Drug Dev. Res. 1986, 8, 213-218).
The extravasation of the dye is characterized by the blueing value which is defined as the concentration of the extracted dye in both ears. The background blueing value was determined once as the mean blueing value obtained by injecting a group of mice with a saline solution containing only dextran T500 and the blue dye. Table 2 lists the percentage inhibition of the extravasation of the dye when compared with the background extravasation of the dye when the test compound was administered at a dose of 5 mg/kg.

[2] = target: T1, recombinant human MNL phosphodiesterase type IV B (Homo sapiens, UniProt Q07343); experiment: Inhibition of Recombinant Human Mononuclear Lymphocyte (MNL) Phosphodiesterase Type IV B Produced in Insect Cells with a Baculovirus Vector; type: biochemical; conditions: 0.8 μM 3H-cAMP, pH 8, 10 min, 37° C., 1% DMSO; read-out: IC50 value, recombinant human MNL phosphodiesterase PDE IV B
T1 construct: made in house
T1 sequence (Q07343 1-564 isoform Q07343-2): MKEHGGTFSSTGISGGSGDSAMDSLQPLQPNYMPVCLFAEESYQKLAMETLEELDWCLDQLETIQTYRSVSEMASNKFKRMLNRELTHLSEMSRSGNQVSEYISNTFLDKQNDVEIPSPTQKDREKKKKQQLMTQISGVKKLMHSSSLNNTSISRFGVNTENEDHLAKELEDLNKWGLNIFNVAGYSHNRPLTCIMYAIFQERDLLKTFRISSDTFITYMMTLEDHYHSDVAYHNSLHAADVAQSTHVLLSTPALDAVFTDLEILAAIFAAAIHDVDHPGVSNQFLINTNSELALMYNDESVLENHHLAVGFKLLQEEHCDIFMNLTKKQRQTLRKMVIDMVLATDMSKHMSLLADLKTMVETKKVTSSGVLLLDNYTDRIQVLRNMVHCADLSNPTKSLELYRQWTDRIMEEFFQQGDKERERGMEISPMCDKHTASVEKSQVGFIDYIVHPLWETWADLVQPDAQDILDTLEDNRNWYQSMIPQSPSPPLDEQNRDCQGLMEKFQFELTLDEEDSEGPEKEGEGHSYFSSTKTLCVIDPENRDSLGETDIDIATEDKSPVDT
Experimental: Inhibition of Recombinant Human Mononuclear Lymphocyte (MNL) Phosphodiesterase Type IV B Produced in Insect Cells with a Baculovirus Vector The alleviating and/or curing effect of the instant compounds on allergic and atopic diseases was assessed by an in vitro assay system to detect an inhibiting effect on the recombinant human MNL phosphodiesterase type IV B. Seventy-two hours after infection with recombinant baculovirus, the insect cells were harvested and pelleted at 500 g for 5 minutes. The cells were lysed in 10 ml lysis-buffer consisting of 20 mM Tris, 10 mM EGTA, 2 mM Na2 EDTA, 1% Triton-X-100, 1 mM Na3 VO4, 10 mM NaF, 2 μg/ml of leupeptine, pepstatine and aprotinine, 0.3 μg/ml benzamidine and 100 μg/ml TPCK pH 7.5. After 5 minutes on ice, solubilized cells were centrifuged at 4000 rpm for 15 minutes at 4° C. The resulting supernatant was filtered through a 0.45 μm filter (Millipore) and brought to TBS buffer (50 mM Tris, 150 mM NaCl pH 7.4). […] The inhibiting effect of the present compounds on recombinant human MNL phosphodiesterase PDE IV B was measured at different concentrations of the instant compounds. The IC50 values (expressed in M) were calculated graphically from the thus obtained inhibition values.

| SMILES | inhibition in vivo at 5 mg/kg [1] | IC50 [2] |
| --- | --- | --- |
| COc1ccc(C(=O)CN2CCN(C3CCCCO3)C2=O)cc1OC (racemic) [Compound 8, (±)-1-[2-(3,4-dimethoxyphenyl)-2-oxoethyl]-3-(tetrahydro-2H-pyran-2-yl)-2-imidazolidinone] | 5.2% |  |
| COc1ccc(C(=O)Cn2ccnc2O)cc1OC1CCCC1 [Compound 1, 1-[2-[3-(cyclopentyloxy)-4-methoxyphenyl]-2-oxoethyl]-1,3-dihydro-2H-imidazol-2-one] | 48.3% | < 1000 nM |
| CCOC(=O)n1ccn(CC(=O)c2ccc(OC)c(OC3CCCC3)c2)c1=O [Compound 2, ethyl 3-[2-[3-(cyclopentyloxy)-4-methoxphenyl]-2-oxoethyl]-2,3-dihydro-2-oxo-1H-imidazole-1-carboxylate] | 55.6% |  |
| C=C(Cn1cc[nH]c1=O)c1ccc(OC)c(OC2CCCC2)c1 [Compound 4, 1-[2-[3-(cyclopentyloxy)-4-methoxy-phenyl]-2-propenyl]-1,3-dihydro-2H-imidazol-2-one] |  | < 1000 nM |
| COc1ccc(C(=O)Cn2ccn(Cc3ccccc3)c2=O)cc1OC [Compound 5, 1-[2-(3,4-dimethoxyphenyl)-2-oxoethyl]-1,3-dihydro-3-(phenylmethyl)-2H-imidazol-2-one] | 28.7% |  |
| COc1ccc(C(=O)CN2CCNC2=O)cc1OC [Compound 7, 1-[2-(3,4-dimethoxyphenyl)-2-oxoethyl]-2-imidazolidinone] | 22.6% |  |
| COc1ccc(/C(=C\C#N)CN2CCNC2=O)cc1OC [Compound 9, (E)-3-(3,4-dimethoxyphenyl)-4-(2-oxo-1-imidazolidinyl)-2-butenenitrile] | 53.8% |  |
| COc1ccc(Cn2ccn(CC(=O)c3ccc(OC)c(OC4CCCC4)c3)c2=O)cc1 [Compound 10, 1-[2-[3-(cyclopentyloxy)-4-methoxyphenyl]-2-oxoethyl]-1,3-dihydro-3-[(4-methoxyphenyl)methyl]-2H-imidazol-2-one] | 56% |  |
| COc1ccc(C(=O)Cn2ccn(C(c3ccccc3)c3ccccc3)c2=O)cc1OC [Compound 11] | 34.6% |  |
| COc1ccc(Cn2ccn(CC(=O)c3ccc(OC)c(OC)c3)c2=O)c(OC)c1 [Compound 12] | 26.4% |  |
| COc1ccc(C(=O)CN2CCNC2=O)cc1OC1CCCC1 [Compound 13] | 27.9% |  |
| CCOC(=O)N1CCN(CC(=O)c2ccc(OC)c(OC)c2)C1=O [Compound 15] | 19.2% |  |
